Patent US20020197244A1, “Compositions and methods for regulating phagocytosis and ICAM-1 expression” (priority 1998, published 2002)

Columns and labels:
Human PMN cells = assay: PMN chemotactic migration towards FMLP, Boyden chamber; format: cell-based; conditions: cells counted at 115 microns; PMN pretreated with 5 or 0.5 mg/ml STI or 1 or 0.1 μM Compound I; buffer without FMLP: 19 at 80 μ
Description: Since ICAM-1 is involved in cell migration, cell migration towards a chemotactic peptide was studied in cells treated with Compound I and STI. Human PMN cells were placed in one side of a Boyden chamber, using standard techniques, and a chemotactic peptide (FMLP) was placed in the other chamber. Cells were allowed to migrate into the second chamber, and the number of migrating cells per field and distance of migration were calculated. The experiment was repeated with PMN cells pretreated with one of the following: 5 or 0.5 mg/ml STI, 1 or 0.1 μM Compound I, a buffer vehicle, and with and without chemotactic peptide. The number of cells per field that migrated the same distance as the untreated control was measured. Without the peptide and with no treatment, an average of 19 cells/field were migrating a distance of 80 microns. […] In other words, no cells (or less than 5/field) were identified at 115 microns. […] The ability to inhibit PMN migration is an important constituent of anti-inflammatory compounds.

[1] = test system: fibroblast cell line 92-3T3; assay: Fluorescent microsphere ingestion by fibroblasts; format: cell-based; conditions: vs untreated fibroblasts; FIG. 3
Description: In this example, human primary keratinocytes or the human keratinocyte cell line HaCaT were used as in vitro model systems to study the effect of PAR-2 regulators on keratinocyte phagocytosis. The human primary keratinocytes used are commercially available from Clonetics (San Diego, Calif.). Cells were plated on chamber slides, at 2 chambers/slide and 60,000 cells/chamber. Cells were treated once daily, for two or three days, with Compound I (1μM), SLIGRL (10μM), or vehicle (Phosphate-buffered saline, (“PBS”) from Gibco-BRL (Gaithersburg, Md.). After two or three days of exposure to the test compounds, cells were exposed to Nile-red or FITC fluorescent microspheres, 1 μm in diameter, 50 microspheres/cell, for two hours at 37° C. Microspheres were from Molecular Probes (Eugene, Oreg.), and were processed according to manufacturer's instructions. Following that treatment, cells were incubated with 15% Fetal Bovine Serum (“FBS”, from Gibco-BRL), for 15 minutes at 37° C. and rinsed with PBS. At that time, chambers were separated from the slides, and the slides were covered with glycerol and coverslips. Fluorescent microscopy was performed using a Zeiss Axiovert 35 or a Nikon Optiphot-2 microscope.
The experiment described in Example 1 was repeated using the fibroblast cell line 92-3T3 (obtained from the ATCC in Rockville, Md.). Fibroblasts are not known to posses phagocytic ability.

melanocytes = assay: Fluorescent microsphere ingestion by melanocytes; format: cell-based; conditions: which do not express PAR-2
human age spots = assay: Lightening of human age spots, topical treatment; format: in vivo; conditions: STI, 1%, in liposomes (20 mg/ml), twice a day, 8 weeks
Description: An individual with three age spots on the dorsum of […] hand was treated for eight weeks, twice a day, as follows. The proximal age spot was treated with placebo, containing 20 mg/ml of liposomes. The median age spot was not treated. The distal age spot was treated with STI, 1%, in liposomes (20 mg/ml). GDL liposomes were prepared as set forth in Niemiec, et al., with the exception of the following changes. The non-ionic liposomal formulation contained glycerol dilaurate (Emulsynt GDL, ISP Van Dyk)/cholesterol (Croda)/polyoxyethylene-10-stearyl ether (Brij76, ICI)/polyoxyethylene-9-lauryl ether, as at ratio of 37.5:12.5:33.3:16.7. Hepes buffer, 0.05M, pH 7.4 (Gibco-BRL of Gaithersburg, Md.) was used as the aqueous phase in the preparation of the liposomes. UV and visible light digital pictures were taken at times of 0, 4 and 8 weeks of treatment. L* (brightness) values were calculated from the images using Adobe Photoshop.
FIG. 11 is a composite of four pictures. The left panel is a visible light picture of the hand, before (upper) and after (lower) 8 weeks of treatment. At this orientation, the proximal age spot is placebo-treated, the median age spot is untreated, and the distal age spot is STI-treated.

Row | Molecule | Cells/Field (Human PMN cells) [cells/field] | number of ingested beads [1] | microsphere ingestion (melanocytes) | increase in L* (brightness) (human age spots; calculated from images) [L* units] | age spot appearance (human age spots; one individual, FIG. 11)
1 | CN[C@H](Cc1ccccc1)C(=O)N1CCCC1C(=O)N[C@@H](CCCNC(=N)N)C(=O)c1nc2ccccc2s1 (stereo partly drawn) [Compound I, (S)-N-Methyl-D-phenylalanyl-N-[4-[(aminoiminomethyl)amino]-1-(2-benzothiazolylcarbonyl)butyl]-L-prolinamide] | <5 |  |  |  | 
2 | SLIGRL [reference compound] |  | increased the number of ingested beads | no inducible effect on microsphere ingestion |  | 
3 | STI: Soybean trypsin inhibitor, a serine protease inhibitor capable of affecting the PAR-2 pathway (protein, UniProt P01070 25-205, looked up) Trypsin inhibitor A: DFVLDNEGNPLENGGTYYILSDITAFGGIRAAPTGNERCPLTVVQSRNELDKGIGTIISSPYRIRFIAEGHPLSLKFDSFAVIMLCVGIPTEWSVVEDLPEGPAVKIGENKDAMDGWFRLERVSDDEFNNYKLVFCPQQAEDDKCGDIGISIDHDDGTRRLVVSKNKPLVVQFQKLDKESL | <5 |  |  | 15 | became lighter
